Reference: patent US20260356823A1, “SODIUM CHANNEL REGULATOR AND USE THEREOF” (SHANGHAI HUILUN PHARMACEUTICAL CO., LTD., priority 2022, published 2026)

Legend:
Nav1.8 sodium channel = target: T1, Nav1.8 sodium channel (Homo sapiens, UniProt Q9Y5Y9); assay: In vitro inhibition IC50 of Nav1.8, whole-cell patch clamp on CHO cell line stably expressing Nav1.8 (SCN10A, NM_006514); assay type: cell-based; details: CHO cells stably expressing Nav1.8, whole-cell patch clamp, room temperature
T1 construct: expressed in transfected cells
T1 sequence (Q9Y5Y9 whole entry): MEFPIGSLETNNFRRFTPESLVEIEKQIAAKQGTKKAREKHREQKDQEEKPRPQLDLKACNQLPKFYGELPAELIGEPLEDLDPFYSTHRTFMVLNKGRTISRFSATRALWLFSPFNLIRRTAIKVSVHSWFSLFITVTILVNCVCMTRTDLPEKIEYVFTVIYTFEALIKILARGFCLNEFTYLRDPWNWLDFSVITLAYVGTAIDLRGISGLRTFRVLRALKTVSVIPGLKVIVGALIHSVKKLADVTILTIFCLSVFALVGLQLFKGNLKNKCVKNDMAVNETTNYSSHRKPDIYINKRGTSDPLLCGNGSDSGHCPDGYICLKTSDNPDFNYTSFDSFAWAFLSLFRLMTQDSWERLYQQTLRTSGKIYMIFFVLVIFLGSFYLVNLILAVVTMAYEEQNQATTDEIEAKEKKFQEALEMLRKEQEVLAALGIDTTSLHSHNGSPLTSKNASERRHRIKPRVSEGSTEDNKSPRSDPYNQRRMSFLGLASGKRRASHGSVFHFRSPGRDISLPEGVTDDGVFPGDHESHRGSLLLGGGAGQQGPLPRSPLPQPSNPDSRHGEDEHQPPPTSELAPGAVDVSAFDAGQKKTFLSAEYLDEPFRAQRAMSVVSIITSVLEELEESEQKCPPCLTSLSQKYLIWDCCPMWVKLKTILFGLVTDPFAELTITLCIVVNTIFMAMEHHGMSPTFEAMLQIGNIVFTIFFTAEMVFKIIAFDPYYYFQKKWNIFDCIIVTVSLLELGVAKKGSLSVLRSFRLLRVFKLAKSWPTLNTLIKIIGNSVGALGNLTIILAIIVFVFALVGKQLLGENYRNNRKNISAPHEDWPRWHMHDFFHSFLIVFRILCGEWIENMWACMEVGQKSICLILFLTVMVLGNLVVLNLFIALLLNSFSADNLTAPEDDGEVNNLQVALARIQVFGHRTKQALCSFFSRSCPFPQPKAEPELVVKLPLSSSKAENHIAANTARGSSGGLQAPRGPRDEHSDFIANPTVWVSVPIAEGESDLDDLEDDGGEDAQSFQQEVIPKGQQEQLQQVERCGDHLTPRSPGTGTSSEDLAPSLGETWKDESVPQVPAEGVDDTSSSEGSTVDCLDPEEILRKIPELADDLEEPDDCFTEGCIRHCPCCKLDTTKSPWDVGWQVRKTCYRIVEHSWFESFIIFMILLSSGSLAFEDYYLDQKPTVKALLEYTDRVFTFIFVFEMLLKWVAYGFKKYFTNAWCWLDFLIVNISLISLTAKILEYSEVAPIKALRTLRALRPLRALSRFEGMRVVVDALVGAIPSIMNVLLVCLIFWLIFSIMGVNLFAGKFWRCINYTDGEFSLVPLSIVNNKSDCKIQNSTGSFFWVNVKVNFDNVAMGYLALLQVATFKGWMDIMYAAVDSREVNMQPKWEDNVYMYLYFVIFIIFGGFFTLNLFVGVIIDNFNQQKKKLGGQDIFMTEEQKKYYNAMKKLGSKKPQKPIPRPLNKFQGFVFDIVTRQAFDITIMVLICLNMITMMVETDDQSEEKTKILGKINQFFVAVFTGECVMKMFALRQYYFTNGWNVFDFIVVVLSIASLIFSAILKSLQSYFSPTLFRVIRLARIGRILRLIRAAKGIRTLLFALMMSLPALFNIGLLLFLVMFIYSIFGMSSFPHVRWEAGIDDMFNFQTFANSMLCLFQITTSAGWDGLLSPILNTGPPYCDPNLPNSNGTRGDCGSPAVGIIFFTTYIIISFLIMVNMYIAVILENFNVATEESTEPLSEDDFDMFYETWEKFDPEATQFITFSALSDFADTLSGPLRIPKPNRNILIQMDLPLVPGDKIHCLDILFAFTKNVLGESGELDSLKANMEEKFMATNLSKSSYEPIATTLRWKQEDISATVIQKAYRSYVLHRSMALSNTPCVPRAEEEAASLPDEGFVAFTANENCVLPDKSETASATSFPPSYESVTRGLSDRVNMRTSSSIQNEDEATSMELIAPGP
Text: Bioactivity Test 2: In Vitro Inhibition IC50 of Nav1.8 by the Test Compound
A CHO cell line stably expressing the Nav1.8 sodium channel was used for experimental assays with the following gene information: Sodium channel, voltage-gated, type 8, alpha (SCN10A), cDNA strictly similar to GenBank accession number: NM_006514.
Before the patch clamp assay, the cells were detached with 0.25%-Trypsin-EDTA, and 6.5×10^3 cells were spread onto cover slips and cultured in a 24-well plate (final volume: 500 μL) for 18 h. Then, the assay was carried out.
Fluids for electrophysiological recording included: extracellular fluid: K-007-1, 140 mM NaCl, 3.5 mM KCl, 1 mM MgCl2·6H2O, 2 mM CaCl2·2H2O, 10 mM D-Glucose, 10 mM HEPES, 1.25 mM NaH2PO4·2H2O, and NaOH for adjustment to pH=7.4; and intracellular fluid: Nav-001-2, 50 mM CsCl, 10 mM NaCl, 10 mM HEPES, 60 mM CsF, 20 mM EGTA, and […]. The extracellular fluid was stored for 2 weeks. The intracellular fluid was prepared and dispensed as 1 mL per tube, and frozen in a refrigerator at −20° C. Freshly thawed intracellular fluid was used for daily experiments. All intracellular fluids have to be used up within three months. Beyond three months, the old intracellular fluid has to be discarded, and the intracellular fluid needs to be prepared again.
Patch clamp assay: Whole-cell patch-clamp recording Nav1.8 sodium currents under voltage stimulation was carried out as follows: When a whole-cell seal was formed, the cell was clamped at a voltage of −120 mV and maintained for 30 ms. The cell was depolarized from the clamping voltage to 0 mV and maintained for 50 ms. Then, the voltage was restored to −50 mV (for a specific voltage, refer to a half-inactivation voltage from an IV test) and maintained for 5 s. Next, the cell membrane potential was restored to −120 mV and maintained for 20 ms. Then, the cell was depolarized to 0 mV and maintained for 50 ms. Finally, the voltage was restored to the clamping voltage −120 mV and maintained for 30 ms. Data was collected at […]. The effect of the drug on a peak sodium current was observed. Experimental data was collected by an EPC 10 amplifier (HEKA) and stored in PatchMaster (HEKA) software.
A capillary glass tube was pulled into a recording electrode by using a microelectrode puller. The electrode filled with the intracellular fluid was loaded into an electrode holder. A microelectrode manipulator was manipulated under an inverted microscope to immerse the electrode into the extracellular fluid, and an electrode resistance (Rpip) was recorded. The electrode was brought into contact with the cell surface, and suction was applied under negative pressure to form a high-resistance seal (GQ). In this case, fast capacitance compensation was carried out, and negative pressure was then applied to break the cell membrane through suction to form a whole-cell recording mode. Then, slow capacitance compensation was carried out, and experimental parameters such as a membrane capacitance (Cm) and a series resistance (Rs) were recorded. No leakage compensation was carried out.
The drug was administered after the Nav1.8 current obtained by whole-cell recording. The drug acted at each concentration for 5 min (or until the current was stable), and then the drug was tested at a next concentration. Each test compound was tested for multiple concentrations. The cover slips with the cells spread were placed in a recording bath under an inverted microscope. A blank control extracellular fluid and a working solution of the to-be-tested compound were perfused by gravity through the recording bath into the cells from low concentration to high concentration. Fluid exchange was carried out by using a peristaltic pump during the recording. A current detected for each cell in the compound-free extracellular fluid served as its own control. For each concentration, at least three cells were tested independently for three times. […]

human Nav1.8 = target: T2, human Nav1.8 (Homo sapiens, UniProt Q9Y5Y9); assay: In vitro inhibition of Nav1.8, manual patch clamp on HEK293 cells stably expressing human Nav1.8; assay type: cell-based; details: HEK293, 100 nM, human Nav1.8, manual patch clamp, read-out: Inhibitory activity (inhibition/% at 100 nM concentration)
T2 construct: expressed in transfected cells
T2 sequence (Q9Y5Y9 whole entry): as above
Experimental: Bioactivity Test 1: In Vitro Inhibition of Nav1.8 by the Compound
By using a manual patch clamp on HEK293 cells stably expressing human Nav1.8, currents on Nav1.8 before and after administration of the compound were compared after the currents on Nav1.8 were stable, to obtain the effect of the compound on the Nav1.8 channel.
The to-be-tested compound was dissolved in DMSO to prepare a 9 mM stock solution, which was taken and dissolved in extracellular fluid at a desired concentration on the day of testing. The extracellular fluid included the following ingredients (mM): NaCl, 137; KCl, 4; CaCl2, 1.8; MgCl2, 1; HEPES, 10; glucose, 10; and pH 7.4 (NaOH titration). All reagents were purchased from Sigma (St. Louis, MO).
The cells were clamped at −80 mV and depolarized with a sustained 10 ms square wave to 10 mV to obtain a current on Nav1.8. This process was repeated every 5 seconds. A maximum current caused by the square wave was detected. After the current is stable, the to-be-tested compound (dissolved in the extracellular fluid at the desired concentration) was perfused. After the current is stable, the strength of blocking Nav1.8 by the compound was calculated based on the currents before and after perfusion of the compound. pCLAMP 10 (Molecular Devices, Union City, CA) was used. That the current is stable means that the current changes over time within a limited range.

IC50 (Nav1.8 sodium channel) [nM] | inhibition at 0.1 µM (human Nav1.8) [%] | Structure (SMILES)
< 0.5 | ≥ 50 | COc1c(C2[C@H](C(=O)Nc3ccc(F)c(S(N)(=O)=O)c3)O[C@@](C)(C(F)(F)F)[C@H]2C)ccc(F)c1F (relative stereo) [Example 81]
3 | ≥ 50 | COc1c([C@H]2[C@H](C(=O)Nc3ccnc(S(N)(=O)=O)c3)O[C@]3(C(F)(F)F)CC[C@]23C)ccc(F)c1F (relative stereo) [Example 87, rel-(1R,3R,4S,5R)-4-(3,4-difluoro-2-methoxyphenyl)-5-methyl-N-(2-sulfamoylpyridin-4-yl)-1-trifluoromethyl-2-oxabicyclo[3.2.0]heptane-3-carboxamide]
2 | ≥ 50 | COc1c([C@H]2[C@H](C(=O)Nc3ccc4c(c3)C(=O)NCC4)O[C@@](C)(C(F)(F)F)[C@H]2C)ccc(F)c1F (relative stereo) [Example 6, rel-(2R,3S,4S,5R)-3-(3,4-difluoro-2-methoxyphenyl)-4,5-dimethyl-N-(1-oxo-1,2,3,4-tetrahydroisoquinolin-7-yl)-5-(trifluoromethyl)tetrahydrofuran-2-carboxamide]
26 | ≥ 50 | CONC(=O)c1cc(NC(=O)[C@@H]2O[C@@](C)(C(F)(F)F)[C@@H](C)[C@H]2c2ccc(F)c(F)c2OC)ccn1 (relative stereo) [Example 21]
– | ≥ 50 | COc1c([C@H]2[C@H](C(=O)Nc3ccc4c(c3)CNC4=O)O[C@@](C)(C(F)(F)F)[C@H]2C)ccc(F)c1F (relative stereo) [Example 8, rel-(2R,3S,4S,5R)-3-(3,4-difluoro-2-methoxyphenyl)-4,5-dimethyl-N-(1-oxo-2,3-dihydro-1H-isoindol-5-yl)-5-(trifluoromethyl)tetrahydrofuran-2-carboxamide]
– | ≥ 50 | COc1c(C2C(C(=O)Nc3cc(F)c(C(N)=O)c(C(N)=O)c3)OC(C)(C(F)(F)F)C2C)ccc(F)c1F [Example 80, rel-5-((2R,3S,4S,5R)-3-(3,4-difluoro-2-methoxyphenyl)-4,5-dimethyl-5-(trifluoromethyl)tetrahydrofuran-2-carboxamide)-3-fluorophthalic amine]
– | ≥ 50 | COc1c([C@H]2[C@H](C(=O)Nc3ccc4c(c3)C(=O)NC4)O[C@@](C)(C(F)(F)F)[C@H]2C)ccc(F)c1F (relative stereo) [Example 1, rel-(2R,3S,4S,5R)-3-(3,4-difluoro-2-methoxyphenyl)-4,5-dimethyl-N-(3-oxoisoindolin-5-yl)-5-(trifluoromethyl)tetrahydrofuran-2-carboxamide]
– | ≥ 50 | COc1c([C@H]2[C@H](C(=O)Nc3ccc4o[nH]c(=O)c4c3)O[C@@](C)(C(F)(F)F)[C@H]2C)ccc(F)c1F (relative stereo) [Example 5, rel-(2R,3S,4S,5R)-3-(3,4-difluoro-2-methoxyphenyl)-4,5-dimethyl-N-(3-oxo-2H-benzo[d]isoxazol-5-yl)-5-(trifluoromethyl)tetrahydrofuran-2-carboxamide]
– | ≥ 50 | COc1c([C@H]2[C@H](C(=O)Nc3ccc4c(c3)S(=O)(=O)NC4)O[C@@](C)(C(F)(F)F)[C@H]2C)ccc(F)c1F (relative stereo) [Example 9, rel-(2R,3S,4S,5R)-3-(3,4-difluoro-2-methoxyphenyl)-N-(1,1-dioxo-2,3-dihydrobenzo[d]isothiazol-6-yl)-4,5-dimethyl-5-(trifluoromethyl)tetrahydrofuran-2-carboxamide]
– | < 50 | COc1c(C2C(C(=O)Nc3ccc(C(N)=O)c(C(N)=O)c3)OC(C)(C(F)(F)F)C2C)ccc(F)c1F (single isomer, unassigned) [Example 30-1]

The remaining lines, values behind:

Structure (SMILES) | IC50 (Nav1.8 sodium channel) [nM] | inhibition at 0.1 µM (human Nav1.8) [%]
COc1c([C@H]2[C@H](C(=O)Nc3ccc(F)c(C(N)=O)c3)O[C@]3(C(F)(F)F)CC[C@]23C)ccc(F)c1F (relative stereo) [Example 85, rel-(1R,3R,4S,5R)—N-(3-carbamoyl-4-fluorophenyl)-4-(3,4-difluoro-2-methoxyphenyl)-5-methyl-1-trifluoromethyl-2-oxabicyclo[3.2.0]heptane-3-carboxamide] | < 1 | ≥ 50
COc1c([C@H]2[C@H](C(=O)Nc3ccc(C(N)=O)nc3)O[C@]3(C(F)(F)F)CC[C@]23C)ccc(F)c1F [Example 97, 5-((1S,3R,4S,5S)-4-(3,4-difluoro-2-methoxyphenyl)-5-methyl-1-(trifluoromethyl)-2-oxabicyclo[3.2.0]heptane-3-formylamino)pyridinecarboxamide] | – | ≥ 50
COc1c([C@H]2[C@H](C(=O)Nc3ccc(F)c(S(=O)(=O)Nc4cscn4)c3)O[C@]3(C(F)(F)F)CC[C@]23C)ccc(F)c1F (relative stereo) [Example 92, rel-(1R,3R,4S,5R)-4-(3,4-difluoro-2-methoxyphenyl)-N-(4-fluoro-3-(N-(thiazol-4-yl)aminosulfonyl)phenyl)-5-methyl-1-trifluoromethyl-2-oxabicyclo[3.2.0]heptane-3-carboxamide] | – | ≥ 50
COc1c([C@H]2C(C(=O)Nc3ccc(S(N)(=O)=O)nc3)O[C@]3(C(F)(F)F)CC[C@]23C)ccc(F)c1F (stereo partly shown) [Example 99] | – | ≥ 50
CNS(=O)(=O)c1cc(NC(=O)[C@@H]2O[C@]3(C(F)(F)F)CC[C@]3(C)[C@H]2c2ccc(F)c(F)c2OC)ccn1 (relative stereo) [Example 88, rel-(1R,3R,4S,5R)-4-(3,4-difluoro-2-methoxyphenyl)-5-methyl-N-(2-(N-methylsulfamoyl)pyridin-4-yl)-1-(trifluoromethyl)-2-oxabicyclo[3.2.0]heptane-3-carboxamide] | – | ≥ 50
COc1c([C@H]2C(C(=O)Nc3ccnc(S(C)(=N)=O)c3)O[C@]3(C(F)(F)F)CC[C@]23C)ccc(F)c1F (relative stereo) [Example 93, rel-(1R,3R,4S,5R)-4-(3,4-difluoro-2-methoxyphenyl)-5-methyl-N-(2-(S-methylsulfoximine)pyridin-4-yl)-1-(trifluoromethyl)-2-oxabicyclo[3.2.0]heptane-3-carboxamide] | – | ≥ 50
COc1c([C@H]2[C@H](C(=O)Nc3ccc(C(O)CO)nc3)O[C@]3(C(F)(F)F)CC[C@]23C)ccc(F)c1F (relative stereo) [Example 98, rel-(1R,3R,4S,5R)-4-(3,4-difluoro-2-methoxyphenyl)-N-(6-(1,2-dihydroxyethyl)pyridin-3-yl)-5-methyl-1-trifluoromethyl-2-oxabicyclo[3.2.0]heptane-3-carboxamide] | – | ≥ 50
